Experiment [1] has as its system TGF-β-stimulated SMAD3 phosphorylation in BEAS-2B cells. The experiment can be described thus: Cellular ALK5 potency assay, inhibition of TGF-β stimulated pSMAD3 formation in BEAS-2B cells. Particulars: Homo sapiens, pSMAD3, TGF-β 10 ng/mL, read-out: BEAS2B pIC50 (converted). The format is cell-based. In short, it runs like this:
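Cells were seeded overnight, rinsed into HEPES/BSA-supplemented HBSS, and dosed with serially diluted compound for 1 h at 37 °C, 5% CO2. TGF-β stimulation (10 ng/mL final) followed for 30 min, then lysis and AlphaLISA pSMAD3 measurement; potency reported as pIC50.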

For experiment [2], the target named is T1, recombinant human ALK5 (TGF-βR1) protein (Homo sapiens, UniProt P36897).
T1 construct: purchased Life Technologies PR9075A
T1 sequence (P36897 34-503): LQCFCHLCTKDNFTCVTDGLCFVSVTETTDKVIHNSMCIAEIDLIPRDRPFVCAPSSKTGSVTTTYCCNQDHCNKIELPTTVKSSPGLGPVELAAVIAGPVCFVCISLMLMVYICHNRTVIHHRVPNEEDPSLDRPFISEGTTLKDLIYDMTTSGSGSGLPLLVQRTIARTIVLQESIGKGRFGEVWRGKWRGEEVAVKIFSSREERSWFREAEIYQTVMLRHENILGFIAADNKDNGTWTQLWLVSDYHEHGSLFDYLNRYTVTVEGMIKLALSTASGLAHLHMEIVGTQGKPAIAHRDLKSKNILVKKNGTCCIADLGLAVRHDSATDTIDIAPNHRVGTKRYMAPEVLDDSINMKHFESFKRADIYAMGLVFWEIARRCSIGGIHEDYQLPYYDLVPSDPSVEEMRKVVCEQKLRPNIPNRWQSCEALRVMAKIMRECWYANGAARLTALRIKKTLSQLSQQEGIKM
Put plainly: Biochemical ALK5 (TGF-βR1) assay to measure pKi (LANCE Ultra ULight kinase assay). Particulars: apparent pKi, converted from pIC50 by Cheng-Prusoff. In short, it runs like this:
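Enzyme was preincubated with compound for 60 min at room temperature, then ATP (added from a 125 μM 5× stock with 2 mM DTT) started a 60 min reaction at 37 °C. EDTA plus Eu-anti-phospho-Topo2α (Thr1342) antibody stopped it; TR-FRET pIC50 values were converted to pKi by Cheng-Prusoff.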

As for `Cc1cccc(-c2nc(Nc3ccnc(Nc4ccc(C(=O)OCC5CNC5)cc4)n3)c3cccn3n2)n1` [Compound 1039, azetidin-3-ylmethyl 4-[[4-[[2-(6-methyl-2-pyridyl)pyrrolo[2,1-f][1,2,4]triazin-4-yl]amino]pyrimidin-2-yl]amino]benzoate], in experiment [1], the IC50 was 25.1 to 158 nM. Also, the Ki in experiment [2] was 0.0398 to 0.316 nM.

For `Cc1cccc(-c2nc(Nc3ccnc(Nc4ccc(NC5CNC5)cc4)n3)c3cccn3n2)n1` [Compound 1040, N2-[4-(azetidin-3-ylamino)phenyl]-N4-[2-(6-methyl-2-pyridyl)pyrrolo[2,1-f][1,2,4]triazin-4-yl]pyrimidine-2,4-diamine], the IC50 in experiment [1] is 25.1 to 158 nM. In addition, in experiment [2], the Ki was 0.0398 to 0.316 nM.

Consider `Cc1cccc(-c2nc(Nc3ccnc(Nc4ccc(NC5CCNC5)cc4)n3)c3cccn3n2)n1` (centres unmarked) [Compound 1041, N4-[2-(6-methyl-2-pyridyl)pyrrolo[2,1-f][1,2,4]triazin-4-yl]-N2-[4-(pyrrolidin-3-ylamino)phenyl]pyrimidine-2,4-diamine], for which the IC50 in experiment [1] is 25.1 to 158 nM. For the same compound, the Ki in experiment [2] is 0.0398 to 0.316 nM.

On to `Cc1cccc(-c2nc(Nc3ccnc(Nc4ccc(NC5CCNCC5)cc4)n3)c3cccn3n2)n1` [Compound 1042, N4-[2-(6-methyl-2-pyridyl)pyrrolo[2,1-f][1,2,4]triazin-4-yl]-N2-[4-(4-piperidylamino)phenyl] pyrimidine-2,4-diamine], for which the IC50 in experiment [1] is 25.1 to 158 nM. Besides, the Ki in experiment [2] is 0.0398 to 0.316 nM.

(Values after patent US20230399312A1, “SUBSTITUTED PYRIMIDINES AND METHODS OF USE” (THERAVANCE BIOPHARMA R&D IP, LLC, priority 2020, published 2023).)
